{
  "source": "patent US9888679B2",
  "about": "“Protection of progenitor cells and regulation of their differentiation” (Proteobioactives Pty Ltd, priority 2007, dated 2018)",
  "key": {"[1]": {"tested_on": "Primary progenitor cells", "experiment": "Differentiation in adipogenic media: adipocyte formation, Oil Red O", "format": "cell-based, human", "settings": "FIG. 8; for differentiation of progenitor cells into adipocytes: adipogenic media, 1.0, 5.0, 10 micrograms/mL", "method": "FIG. 8. The Effects of Pentosan Polysulfate (PPS) on Human progenitor cell Differentiation: Adipocyte Formation. Primary progenitor cells were cultured in 96 well plates in non-adipogenic growth media (media control) or under adipogenic conditions (0.5 mM methylisobutylmethylxanthine, 0.5 μM hydrocortisone, and 60 μM indomethacin) in the presence of PPS at the indicated concentrations. On day 28, the presence of lipid laden adipocytes was determined using the lipophilic dye Oil Red O. The relative amount of solubilised lipid per μg of DNA/well was determined following the assessment of the total amount of DNA per well using a fluorogenic DNA stain (Hoeshst 33258). […] (A) Phase-contrast photomicrographs of Oil Red O labeled adipocytes at ×20 magnification.\nThe conditions required for the development of lipids from human bone marrow stromal cells in vitro have been previously described (Gimble J. Marrow stromal adipocytes. In: Marrow stromal cell culture. J N Beresford, Owen, M. E., ed. Cambridge University Press, Cambridge, pp 67-87 (1998)). Briefly, human progenitor cells were seeded into 96-well plates at a density of 8×10^3 cells per well in complete alpha-MEM growth media and were allowed to reach >90% confluence prior to addition of inductive media. Cells were cultured in adipogenic-inductive media comprised of complete alpha-MEM supplemented with 0.5 mM 3-Isobutyl-1-methyl-xanthine (IBMX), 60 microM Indomethacin, and 0.5 microM Hydrocortisone in the presence of a titration of PPS (0.0, 1.0, 5.0, 10 micrograms/mL). The inductive media was changed twice weekly for a period of 4 weeks. Cells were stained for the presence of lipid using Oil Red ‘O’.\nCells were cultured as described above and gently rinsed in 1×PBS (pH7.4) to avoid disruption of the cell monolayer. Cells were fixed in phosphate buffered formalin for 15 minutes at RT. The fixative was subsequently removed and lipid stained by adding 100 microL of freshly filtered Oil Red O (3 mg/mL; MP Biomedicals, Australia) for ≧2 hours at RT. […]"}, "[2]": {"tested_on": "Type II collagen", "experiment": "Gene expression in 6-day pellet culture (RT-PCR)", "format": "cell-based, murine", "settings": "ATDC5 cells; 6 days in pellet culture; FIG. 13", "method": "FIG. 13. Gene Expression by ATDC5 cells of Type II collagen and Sox-9 in 6-day pellet culture incubated with various concentrations of PPS in Maintenance Medium (MM).\n(§1) Total RNA was isolated from Progenitor cells according to the manufacturer's instructions for the Aurum total RNA mini kit (Bio-Rad, USA). The RNA was reverse transcribed with RevertAid™ H Minus First Stand cDNA Synthesis Kit (Fermentas, USA). PCR products were transferred to an agarose gel, and visualized by ethidium bromide staining, and integrated densities calculated using Scion image analysis software, normalized to the house-keeping gene Glyceraldehydes-3-phosphate dehydrogenase (GAPDH) to permit semi-quantitative comparisons in mRNA levels. (L. Marchuk, P. Sciore, C. Reno, C. B. Frank, D. A. Hart. Postmortem stability of total RNA isolated from rabbit ligament, tendon and cartilage, Biochim Biophys Acta. 1379 (1998) 171-177. R. Boykiw, P. Sciore, C. Reno, L. Marchuk, C. B. Frank, D. A. Hart. Altered levels of extracellular matrix molecule mRNA in healing rabbit ligaments, Matrix Biol. 17 (1998) 371-378.)"}, "[3]": {"tested_on": "Murine ATDC5 cell line", "experiment": "Proteoglycan biosynthesis (35S-GAG) in pellet cultures", "format": "cell-based", "settings": "2 micrograms/mL; 6 day pellet culture; FIG. 12", "source_text": "FIG. 12. A bar graph of the concentration dependent effects of Pentosan Polysulfate (PPS), on the biosynthesis of Proteoglycans (PGs) as determined by the incorporation of radioactively labelled sulfate into the sulfated glycosaminoglycans (^35S-GAG) of PGs in 6 day pellet cultures of murine progenitor cells (ADTC-5). *=p<0.05 relative to control.\nFIG. 22. A bar graph of the concentration dependent effects of rhNC4 (batch PBA-1202P) expressed by K. lactis, in the absence (maintenance media, MM) and presence of insulin (10 micrograms/mL) (differentiation media, DM), on the biosynthesis of Proteoglycans PGs) in pellet cultures of ATDC5 cells. Data is shown as the % change relative to controls taken to be 100%.\nMurine Progenitor cells (cell lines C3H10T1/2 or ATDC5) purchased from RIKEN Cell Bank (Tsukuba, Japan) or human immunoselected Stro-1+ Progenitor cells (Mesoblast Ltd, Melbourne, Australia) were seeded in 2 ml screw-capped sterile centrifuge tubes and the total volume made-up to 1 ml with DMEM-High glucose medium containing 10% FBS. Progenitor cells were then centrifuged at 500 g for 10 min in a swing-out rotor at room temperature. The screw caps were loosened and the tubes placed in an incubator at 37° C., in a 5% CO2/95% air moist atmosphere. The pellets generally formed within 24 hours. Medium was changed daily in the first two days, then once every 2-3 days thereafter. On day 5 the medium was removed and to each tube was added 1 ml with DMEM-High glucose medium containing 10% FBS, 5.0 μCi/ml ^35S-H2SO4 and various concentrations of PPS (0, 0.1, 0.5, 1.0, 2.5, 5.0, 10.0, 20.0, μg/ml) (FIG. 12-15) or rhNC4 (0, 0.1, 0.5, 1.0, 2.0 μg/ml) (FIG. 22). Triplicate cultures were used for all concentration of drugs. The screw caps were loosened and the tubes placed in an incubator at 37° C., in a 5% CO2/95% moist air atmosphere […]. On day 6, 200 μl of stock papain solution [2.5 mg/ml papain, 7.9 mg/ml L-Cystein in papain buffer (0.1 M NaAC, 5 mM EDTA, pH6.0)] was added to each tube. The tubes were tightly capped and incubated at 65° C. for 2 hours. After papain digestion, 4 replicates of 200 μl of papain digested solution were separately transferred to a 96-well micro-titre plate (200 μl/well). The remaining solution was used for the DNA fluorometric assays which were undertaken in triplicate as described above. Biosynthesis of ^35S-GAGs was determined as described for the monolayer cultures and the results expressed as ^35-S-GAGs/μg DNA.\nData is shown as the % of controls taken to be 100%."}, "[4]": {"tested_on": "Smad 4", "experiment": "RT-PCR gene expression, 2 day monolayer ATDC5 cultures", "format": "cell-based, murine", "settings": "ATDC5 cells; concentrations shown to stimulate PG synthesis; FIG. 26", "source_text": "(§2) FIG. 26. RT-PCR detection of gene expression of Runx2 and the transduction proteins, Smad 2 and Smad 4 and the housekeeping gene NADPH expressed by Murine ATDC5 progenitor cells cultured in the presence and absence of rhNC4 (Batch PBA-1209P) and PPS for 2 days in monolayer cultures.\nas §1"}, "[5]": {"tested_on": "Smad 2", "experiment": "RT-PCR gene expression, 2 day monolayer ATDC5 cultures", "format": "cell-based, murine", "settings": "ATDC5 cells; concentrations shown to stimulate PG synthesis; FIG. 26", "source_text": "as §2, §1"}},
  "data": [
    {"substance": "pentosan polysulfate [PPS]", "values": [
      {"measurement": "adipocyte number (Oil Red O lipid per μg DNA)", "setting": "[1]; adipogenic conditions, day 28, PPS in excess 1 ug/ml, p<0.01, ANOVA", "value": "statistically significant increase in adipocyte number"},
      {"measurement": "differentiation of progenitor cells into adipocytes", "setting": "[1]", "value": "upregulation seen at all concentrations"},
      {"measurement": "differentiation of progenitor cells into adipocytes", "setting": "[1]; listed as polysulfated polysaccharides", "value": "showed differentiated to adipocytes"},
      {"measurement": "type II collagen expression", "setting": "[2]", "value": "up-regulated in a concentration dependent manner"},
      {"measurement": "increase of proteoglycan (PG) synthesis relative to control culture", "setting": "[3]", "value": 25, "unit": "%"},
      {"measurement": "expression of Smad 4", "setting": "[4]", "value": "up regulation"},
      {"measurement": "expression of Smad 2", "setting": "[5]", "value": "up regulation"}
    ]}
  ]
}
